Measurements taken from US20220202799A1, “PHARMACEUTICAL FORMULATIONS CONTAINING P2Y14 ANTAGONISTS” (priority 2019, published 2022).
Several values for one entry are separate records, joined by “and”; a condition that tells them apart may be missing. Equal entries are not always repeated. Where two headings read alike, the source gives them in different places.

Key:
[1] = Plasma concentrations and TK parameters, 72-hour continuous intravenous infusion; type: in vivo, Sprague-Dawley rats; settings: for concentration at 72 h / concentration at 78 h / concentration at 84 h / concentration at 96 h / concentration at 24 h / concentration at 48 h: Sprague-Dawley, rat, plasma, iv
Method: The safety and pharmacokinetics of PPTN (KB-1801) in rats receiving continuous intravenous injections of SBECD-containing solutions were analyzed. Three cohorts of six male and six female rats each were given continuous intravenous infusion of PPTN (KB-1801) at 10 mg/kg/day, 30 mg/kg/day or 100 mg/kg/day in a dosing solution containing PPTN at 0.25 mg/mL, 0.75 mg/mL or 2.5 mg/mL and SBECD at about 3.8%. Dosing volume was 40 mIkg/day. [table]

[2] = TPGS enhancement of solubility of PPTN at neutral pH; type: physicochemical
Method: α-Tocopherol polyethylene glycol succinate (TPGS) was tested for enhancement of solubility of PPTN at neutral pH. A solution containing 5 mg/mL PPTN and 4% TPGS was made by mixing components as indicated in Table 5 with stirring and heating.
To create a solution suitable for in vitro studies, the solution containing 5 mg/mL PPTN and 4% TPGS created above was diluted into phosphate-buffered saline by mixing components as indicated in Table 6.

O=C(O)c1cc(-c2ccc(C3CCNCC3)cc2)c2ccc(-c3ccc(C(F)(F)F)cc3)cc2c1 [KB-1801, 4-[4-(piperidin-4-yl)phenyl]-7-[4-(trifluoromethyl)phenyl]-2-naphthoic acid]
concentration at 72 h ([1]; female, 100 mg/kg/day, female Sprague-Dawley rats, 72-hour intravenous infusion at 100 mg/kg/day, time 72 h, read-out: Plasma concentration, individual animal): 7110 ng/mL
concentration at 78 h ([1]; female, 100 mg/kg/day, female Sprague-Dawley rats, 72-hour intravenous infusion at 100 mg/kg/day, time 78 h, read-out: Plasma concentration, Mean): 1820 ng/mL
concentration at 78 h ([1]; female, 100 mg/kg/day, female Sprague-Dawley rats, 72-hour intravenous infusion at 100 mg/kg/day, time 78 h, read-out: Plasma concentration, individual animal): 1900 ng/mL
concentration at 84 h ([1]; female, 100 mg/kg/day, female Sprague-Dawley rats, 72-hour intravenous infusion at 100 mg/kg/day, time 84 h, read-out: Plasma concentration, Mean): 987 ng/mL
concentration at 84 h ([1]; female, 100 mg/kg/day, female Sprague-Dawley rats, 72-hour intravenous infusion at 100 mg/kg/day, time 84 h, read-out: Plasma concentration, individual animal): 841 ng/mL
concentration at 96 h ([1]; female, 100 mg/kg/day, female Sprague-Dawley rats, 72-hour intravenous infusion at 100 mg/kg/day, time 96 h, read-out: Plasma concentration, Mean): 281 ng/mL
concentration at 96 h ([1]; female, 100 mg/kg/day, female Sprague-Dawley rats, 72-hour intravenous infusion at 100 mg/kg/day, time 96 h, read-out: Plasma concentration, individual animal): 288 ng/mL
Plasma concentration, individual animal ([1]; male Sprague-Dawley rats, 72-hour intravenous infusion at 10 mg/kg/day, time 24 h, 10 mg/kg/day): 547.8 ng/mL and 952.8 ng/mL
Plasma concentration, individual animal ([1]; male Sprague-Dawley rats, 72-hour intravenous infusion at 10 mg/kg/day, time 48 h, 10 mg/kg/day): 539.5 ng/mL and 752.7 ng/mL
Plasma concentration, individual animal ([1]; male Sprague-Dawley rats, 72-hour intravenous infusion at 10 mg/kg/day, time 72 h, 10 mg/kg/day): 617.8 ng/mL and 545.9 ng/mL
Plasma concentration, individual animal ([1]; male Sprague-Dawley rats, 72-hour intravenous infusion at 10 mg/kg/day, time 78 h, 10 mg/kg/day): 205.5 ng/mL and 170.5 ng/mL
Plasma concentration, individual animal ([1]; male Sprague-Dawley rats, 72-hour intravenous infusion at 10 mg/kg/day, time 84 h, 10 mg/kg/day): 82.6 ng/mL and 128.1 ng/mL
Plasma concentration, individual animal ([1]; male Sprague-Dawley rats, 72-hour intravenous infusion at 10 mg/kg/day, time 96 h, 10 mg/kg/day): 60.2 ng/mL and 45.0 ng/mL
Plasma concentration, individual animal ([1]; male Sprague-Dawley rats, 72-hour intravenous infusion at 30 mg/kg/day, time 24 h, 30 mg/kg/day): 1855.0 ng/mL and 2482.4 ng/mL
Plasma concentration, individual animal ([1]; male Sprague-Dawley rats, 72-hour intravenous infusion at 30 mg/kg/day, time 48 h, 30 mg/kg/day): 2175.6 ng/mL and 2510.8 ng/mL
Plasma concentration, individual animal ([1]; male Sprague-Dawley rats, 72-hour intravenous infusion at 30 mg/kg/day, time 72 h, 30 mg/kg/day): 1871.2 ng/mL and 2031.5 ng/mL
Plasma concentration, individual animal ([1]; male Sprague-Dawley rats, 72-hour intravenous infusion at 30 mg/kg/day, time 78 h, 30 mg/kg/day): 690.2 ng/mL and 818.5 ng/mL
Plasma concentration, individual animal ([1]; male Sprague-Dawley rats, 72-hour intravenous infusion at 30 mg/kg/day, time 84 h, 30 mg/kg/day): 273.1 ng/mL and 309.1 ng/mL
Plasma concentration, individual animal ([1]; male Sprague-Dawley rats, 72-hour intravenous infusion at 30 mg/kg/day, time 96 h, 30 mg/kg/day): 164.1 ng/mL and 213.1 ng/mL
Plasma concentration, individual animal ([1]; male Sprague-Dawley rats, 72-hour intravenous infusion at 100 mg/kg, time 24 h, 100 mg/kg): 7597.9 ng/mL and 10702.8 ng/mL
Plasma concentration, individual animal ([1]; male Sprague-Dawley rats, 72-hour intravenous infusion at 100 mg/kg, time 48 h, 100 mg/kg): 6182.8 ng/mL and 7504.3 ng/mL
Plasma concentration, individual animal ([1]; male Sprague-Dawley rats, 72-hour intravenous infusion at 100 mg/kg, time 72 h, 100 mg/kg): 7768.2 ng/mL
Plasma concentration, individual animal ([1]; male Sprague-Dawley rats, 72-hour intravenous infusion at 100 mg/kg, time 78 h, 100 mg/kg): 1893.5 ng/mL and 2808.6 ng/mL
Plasma concentration, individual animal ([1]; male Sprague-Dawley rats, 72-hour intravenous infusion at 100 mg/kg, time 84 h, 100 mg/kg): 1818.2 ng/mL
Plasma concentration, individual animal ([1]; male Sprague-Dawley rats, 72-hour intravenous infusion at 100 mg/kg, time 96 h, 100 mg/kg): 333.5 ng/mL and 482.1 ng/mL
concentration at 24 h ([1]; male, 10 mg/kg/day, male Sprague-Dawley rats, 72-hour intravenous infusion at 10 mg/kg/day, time 24 h, read-out: Plasma concentration, Mean): 803 ng/mL
concentration at 24 h ([1]; male, 10 mg/kg/day, male Sprague-Dawley rats, 72-hour intravenous infusion at 10 mg/kg/day, time 24 h, read-out: Plasma concentration, individual animal): 908 ng/mL
concentration at 48 h ([1]; male, 10 mg/kg/day, male Sprague-Dawley rats, 72-hour intravenous infusion at 10 mg/kg/day, time 48 h, read-out: Plasma concentration, Mean): 602 ng/mL
concentration at 48 h ([1]; male, 10 mg/kg/day, male Sprague-Dawley rats, 72-hour intravenous infusion at 10 mg/kg/day, time 48 h, read-out: Plasma concentration, individual animal): 515 ng/mL
concentration at 72 h ([1]; male, 10 mg/kg/day, male Sprague-Dawley rats, 72-hour intravenous infusion at 10 mg/kg/day, time 72 h, read-out: Plasma concentration, Mean): 594 ng/mL
concentration at 72 h ([1]; male, 10 mg/kg/day, male Sprague-Dawley rats, 72-hour intravenous infusion at 10 mg/kg/day, time 72 h, read-out: Plasma concentration, individual animal): 618 ng/mL
concentration at 78 h ([1]; male, 10 mg/kg/day, male Sprague-Dawley rats, 72-hour intravenous infusion at 10 mg/kg/day, time 78 h, read-out: Plasma concentration, Mean): 208 ng/mL
concentration at 78 h ([1]; male, 10 mg/kg/day, male Sprague-Dawley rats, 72-hour intravenous infusion at 10 mg/kg/day, time 78 h, read-out: Plasma concentration, individual animal): 249 ng/mL
concentration at 84 h ([1]; male, 10 mg/kg/day, male Sprague-Dawley rats, 72-hour intravenous infusion at 10 mg/kg/day, time 84 h, read-out: Plasma concentration, Mean): 98.9 ng/mL
concentration at 84 h ([1]; male, 10 mg/kg/day, male Sprague-Dawley rats, 72-hour intravenous infusion at 10 mg/kg/day, time 84 h, read-out: Plasma concentration, individual animal): 86 ng/mL
concentration at 96 h ([1]; male, 10 mg/kg/day, male Sprague-Dawley rats, 72-hour intravenous infusion at 10 mg/kg/day, time 96 h, read-out: Plasma concentration, Mean): 55.1 ng/mL
concentration at 96 h ([1]; male, 10 mg/kg/day, male Sprague-Dawley rats, 72-hour intravenous infusion at 10 mg/kg/day, time 96 h, read-out: Plasma concentration, individual animal): 60 ng/mL
concentration at 24 h ([1]; male, 30 mg/kg/day, male Sprague-Dawley rats, 72-hour intravenous infusion at 30 mg/kg/day, time 24 h, read-out: Plasma concentration, Mean): 1950 ng/mL
concentration at 24 h ([1]; male, 30 mg/kg/day, male Sprague-Dawley rats, 72-hour intravenous infusion at 30 mg/kg/day, time 24 h, read-out: Plasma concentration, individual animal): 1520 ng/mL
concentration at 48 h ([1]; male, 30 mg/kg/day, male Sprague-Dawley rats, 72-hour intravenous infusion at 30 mg/kg/day, time 48 h, read-out: Plasma concentration, Mean): 2500 ng/mL
concentration at 48 h ([1]; male, 30 mg/kg/day, male Sprague-Dawley rats, 72-hour intravenous infusion at 30 mg/kg/day, time 48 h, read-out: Plasma concentration, individual animal): 2800 ng/mL
concentration at 72 h ([1]; male, 30 mg/kg/day, male Sprague-Dawley rats, 72-hour intravenous infusion at 30 mg/kg/day, time 72 h, read-out: Plasma concentration, Mean): 1670 ng/mL
concentration at 72 h ([1]; male, 30 mg/kg/day, male Sprague-Dawley rats, 72-hour intravenous infusion at 30 mg/kg/day, time 72 h, read-out: Plasma concentration, individual animal): 1110 ng/mL
concentration at 78 h ([1]; male, 30 mg/kg/day, male Sprague-Dawley rats, 72-hour intravenous infusion at 30 mg/kg/day, time 78 h, read-out: Plasma concentration, Mean): 736 ng/mL
concentration at 78 h ([1]; male, 30 mg/kg/day, male Sprague-Dawley rats, 72-hour intravenous infusion at 30 mg/kg/day, time 78 h, read-out: Plasma concentration, individual animal): 698 ng/mL
concentration at 84 h ([1]; male, 30 mg/kg/day, male Sprague-Dawley rats, 72-hour intravenous infusion at 30 mg/kg/day, time 84 h, read-out: Plasma concentration, Mean): 290 ng/mL
concentration at 84 h ([1]; male, 30 mg/kg/day, male Sprague-Dawley rats, 72-hour intravenous infusion at 30 mg/kg/day, time 84 h, read-out: Plasma concentration, individual animal): 289 ng/mL
concentration at 96 h ([1]; male, 30 mg/kg/day, male Sprague-Dawley rats, 72-hour intravenous infusion at 30 mg/kg/day, time 96 h, read-out: Plasma concentration, Mean): 172 ng/mL
concentration at 96 h ([1]; male, 30 mg/kg/day, male Sprague-Dawley rats, 72-hour intravenous infusion at 30 mg/kg/day, time 96 h, read-out: Plasma concentration, individual animal): 139 ng/mL
concentration at 24 h ([1]; male, 100 mg/kg, male Sprague-Dawley rats, 72-hour intravenous infusion at 100 mg/kg, time 24 h, read-out: Plasma concentration, Mean): 9550 ng/mL
concentration at 24 h ([1]; male, 100 mg/kg, male Sprague-Dawley rats, 72-hour intravenous infusion at 100 mg/kg, time 24 h, read-out: Plasma concentration, individual animal): 10300 ng/mL
concentration at 48 h ([1]; male, 100 mg/kg, male Sprague-Dawley rats, 72-hour intravenous infusion at 100 mg/kg, time 48 h, read-out: Plasma concentration, Mean): 7030 ng/mL
concentration at 48 h ([1]; male, 100 mg/kg, male Sprague-Dawley rats, 72-hour intravenous infusion at 100 mg/kg, time 48 h, read-out: Plasma concentration, individual animal): 7400 ng/mL
concentration at 72 h ([1]; male, 100 mg/kg, male Sprague-Dawley rats, 72-hour intravenous infusion at 100 mg/kg, time 72 h, read-out: Plasma concentration, Mean): 9790 ng/mL
concentration at 72 h ([1]; male, 100 mg/kg, male Sprague-Dawley rats, 72-hour intravenous infusion at 100 mg/kg, time 72 h, read-out: Plasma concentration, individual animal): 11800 ng/mL
concentration at 78 h ([1]; male, 100 mg/kg, male Sprague-Dawley rats, 72-hour intravenous infusion at 100 mg/kg, time 78 h, read-out: Plasma concentration, Mean): 2640 ng/mL
concentration at 78 h ([1]; male, 100 mg/kg, male Sprague-Dawley rats, 72-hour intravenous infusion at 100 mg/kg, time 78 h, read-out: Plasma concentration, individual animal): 3220 ng/mL
concentration at 84 h ([1]; male, 100 mg/kg, male Sprague-Dawley rats, 72-hour intravenous infusion at 100 mg/kg, time 84 h, read-out: Plasma concentration, Mean): 2230 ng/mL
concentration at 84 h ([1]; male, 100 mg/kg, male Sprague-Dawley rats, 72-hour intravenous infusion at 100 mg/kg, time 84 h, read-out: Plasma concentration, individual animal): 2650 ng/mL
concentration at 96 h ([1]; male, 100 mg/kg, male Sprague-Dawley rats, 72-hour intravenous infusion at 100 mg/kg, time 96 h, read-out: Plasma concentration, Mean): 471 ng/mL
concentration at 96 h ([1]; male, 100 mg/kg, male Sprague-Dawley rats, 72-hour intravenous infusion at 100 mg/kg, time 96 h, read-out: Plasma concentration, individual animal): 598 ng/mL
Time for plasma PPTN concentrations to reach steady state ([1]; rats, continuous intravenous infusion): ≤ 24 h
Plasma PPTN concentrations, relation to dose ([1]; rats, continuous intravenous infusion 10, 30, 100 mg/kg/day): linearly dose-related
Solution pH (final) ([2]; 100 μM KB-1801, 0.04 wt % TPGS in buffered saline): Final pH: 7.4
Solution appearance ([2]; 100 μM KB-1801, 0.04 wt % TPGS in buffered saline (5 mg/ml solution diluted 100x)): Resulting clear solution
Solution appearance ([2]; 5 mg/mL KB-1801, 4 wt % TPGS, after phosphate buffer 20 mM pH 8.3): Resulting clear
Solution pH (final) ([2]; 5 mg/mL KB-1801, 4 wt % TPGS, phosphate buffer, buffered saline): Final pH: 7.0-7.4
Solution appearance ([2]; 5 mg/mL KB-1801 with TPGS solution, 4 wt %, stirring and heating): Resulting clear
